This data set has as its system Salmonella typhimurium Ames mutagenicity, literature compiled. As to the kind of experiment: DSSTox (CPDBAS) Carcinogenic Potency Database Salmonella Mutagenicity. In outline: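 Calls derive from published evaluations rather than new testing; overall "positive" in EPA Gene-Tox, or "mutagenic"/"weakly mutagenic" per Zeiger, counts as active.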

The record followed here is PubChem BioAssay AID1194 (EPA DSSTox, 2008).

Activity calls are given as the source filed them.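 The calls were made as follows: active = chemicals rated mutagenic or weakly mutagenic in the Salmonella bacterial test by one literature review, or positive overall by another; inconclusive = no clear call, values can overlap the other calls; inactive = the rest.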

As for `C[C@]12CC[C@@H]3c4ccc(O)cc4CC[C@H]3[C@@H]1CC[C@@H]2O`, the result was inactive.
Under `O=C1CCC(=O)O1` stands “inactive; active”; under `O=C1CCCCCN1`, “inactive; active”.
Under `NC(=O)/C(=C\c1ccc([N+](=O)[O-])o1)c1ccco1` stands “active”; under `Nc1ccc(NCCO)c([N+](=O)[O-])c1`, “active”.
As to `C=C(F)F`, the outcome was active.
Under `CCOC(=O)C1OC1(C)c1ccccc1` (configuration not stated) stands “inactive; active”; under `O=C(O)CCCc1ccc(N(CCCl)CCCl)cc1`, “active; inactive”; under `O=NN(CCO)CCO`, “active; inactive”.
In the case of `COc1ccc(C(=O)/C(Br)=C\C(=O)O)cc1`, the result was active.
The value for `FC(F)OC(Cl)C(F)(F)F` (configuration not stated) was “inactive”; that for `CC(C)N(C(=O)SC/C(Cl)=C/Cl)C(C)C` was “active”; that for `COC(=O)c1ccc(C(=O)OC)cc1` was “inactive; active”.
The value for `Cc1cc(Cl)ccc1N` was “inactive; active”.
Under `CCBr` stands “active”; under `O=C1N(CCO)CCN1/N=C/c1ccc([N+](=O)[O-])o1`, “active”; under `CC(=O)Nc1ccc(O)cc1`, “inactive; active”.
As to `c1ccncc1`, the outcome was inactive.
The value for `O=c1cc[nH]c(=O)[nH]1` was “inactive; active”; that for `C=CCOC(=O)c1ccccc1C(=O)OCC=C` was “inactive; active”; that for `Cc1ccc2c(c1N)C(=O)c1ccccc1C2=O` was “active”.
The value for `OCC1CO1` (configuration not stated) was “active; inactive”; that for `ClC(Cl)C(Cl)Cl` was “inactive; active”.
The value for `CC(C)CCC[C@@H](C)[C@H]1CC[C@H]2[C@@H]3CC=C4C[C@@H](OC(=O)Cc5ccc(N(CCCl)CCCl)cc5)CC[C@]4(C)[C@H]3CC[C@]12C` was “inactive; active”; that for `Nc1cc(Cl)c(N)c(Cl)c1` was “active”; that for `Cc1noc(NS(=O)(=O)c2ccc(N)cc2)c1C` was “inactive; active”.
`ClC(Cl)Br`: the result was active.
On to `c1ccc(-c2ccccc2)cc1`, for which the result was inactive.
The value for `COc1ccc(O)c(C(C)(C)C)c1` was “inactive; active”; that for `CCC[N+](=O)[O-]` was “inactive; active”.
Regarding `CCCC[C@H](C)[C@@H](OC(=O)C[C@H](CC(=O)O)C(=O)O)[C@@H](C[C@H](C)C[C@@H](O)CCCC[C@@H](O)C[C@H](O)[C@H](C)N)OC(=O)C[C@H](CC(=O)O)C(=O)O`, the outcome was inactive.
The value for `Cc1ccc(N=Nc2c(O)c(S(=O)(=O)O)cc3ccc(S(=O)(=O)O)cc23)c(C)c1` was “active”; that for `O=NN1CCSCC1` was “active; inactive”.
Under `OO` stands “active”; under `C/C=C/C=C/C=O`, “active”.
The value for `O[C@@H]([C@H](O)[C@@H](O)CBr)[C@@H](O)CBr` was “active”.
For the compound `CN(C)CNc1nnc(/C=C/c2ccc([N+](=O)[O-])o2)o1`, the result was active.
Take `CCCCCCCCS(=O)C(C)Cc1ccc2c(c1)OCO2` (configuration not stated): the outcome was “inactive; active”.
For the compound `CC(=O)Nc1nnc(-c2ccc([N+](=O)[O-])o2)s1`, the outcome was active.
The value for `O=NN1CCC1` was “active; inactive”.
Regarding `Clc1nc(Cl)nc(Nc2ccccc2Cl)n1`, the result was inactive.
Under `CN(N=O)c1ccccn1` stands “active; inactive”; under `CCOc1ccc(NC(N)=O)cc1`, “inactive; active”; under `O.O.O.O.O.O.O=S(=O)([O-])[O-].[Ni+2]`, “inactive; active”.
The value for `O=C1NC(=O)C(c2ccccc2)(c2ccccc2)N1` was “inactive”; that for `O=P(OC(CCl)CCl)(OC(CCl)CCl)OC(CCl)CCl` was “active”; that for `O=S1(=O)CCCO1` was “active; inactive”.
Under `O=S(=O)(O)c1c(N=Nc2c(O)ccc3ccccc23)ccc2ccccc12` stands “inactive; active”; under `Nc1ccc(Cl)cc1N`, “active; inactive”; under `CCCCN(CCCC)N=O`, “active; inactive”.
As for `O=c1c(O)c(-c2ccc(O)cc2)oc2cc(O)cc(O)c12`, the result was active.
Regarding `C=CC(O)c1ccc2c(c1)OCO2` (configuration not stated), the result was inactive.
Turning to `CNC(=S)N(C)C`, the outcome is “inactive; active”.
The value for `CBr` was “active”.
As for `CCN(CC)C(=O)/C(Cl)=C(\C)OP(=O)(OC)OC`, the outcome is “active; inactive”.
The value for `O=S(=O)(O)c1ccc(N=Nc2cc(S(=O)(=O)O)c3ccccc3c2O)c2ccccc12` was “active; inactive”.
With `CC(=O)OCc1ccccc1`, the outcome is “inactive; active”.
Under `c1ccc2sc(SSc3nc4ccccc4s3)nc2c1` stands “active; inactive”.
The value for `CN(C)Nc1nc(-c2ccc([N+](=O)[O-])o2)cs1` was “active; inactive”; that for `ClC/C=C/CCl` was “active; inactive”.
Under `ClCCCl` stands “active”.
In the case of `Nc1cc(Cl)cc(C(=O)O)c1Cl`, the outcome was active.
The value for `CC(=O)c1ccc(S(=O)(=O)NC(=O)NC2CCCCC2)cc1` was “inactive”.
The value for `NC1CCCCC1` was “inactive; active”.
The value for `OCCOCCOCCO` was “active; inactive”.
On to `Cc1cc(C)c(N=Nc2c(O)c(S(=O)(=O)O)cc3cc(S(=O)(=O)O)ccc23)cc1C`, for which the outcome is “inactive; active”.
Under `C=CCCl` stands “active; inactive”.
Under `C=CN1CCCC1=O` stands “inactive”.
The value for `Nc1ccc(Nc2ccccc2)cc1` was “inactive; active”; that for `O=[N+]([O-])c1ccc(-c2nc(N3CCOCC3)c3ccccc3n2)s1` was “active”; that for `Nc1ccc(N)c(Cl)c1` was “active; inactive”.
On to `CCc1nc(N)nc(N)c1-c1ccc(Cl)cc1`, for which the outcome is “inactive; active”.
Turning to `COc1ccc(C)cc1N`, the outcome was active.
Under `CC(O)CN(CC(C)O)CC(C)O` (configuration not stated) stands “inactive; active”.
Under `ClC(Cl)C(Cl)(Cl)Cl` stands “inactive”.
For the compound `c1cc(OCC2CO2)cc(OCC2CO2)c1` (configuration not stated), the result was active.
`[C-]1=CC=CC1.[C-]1=CC=CC1.[Cl-].[Cl-].[Ti+4]`: the outcome is “active; inactive”.
The value for `C#C[C@]1(O)CC[C@H]2[C@@H]3CCC4=C(CCC(=O)C4)[C@H]3CC[C@@]21C` was “inactive; active”; that for `CCCCCCCCCCCCN(C)N=O` was “active”.
`Cc1cc2ncccc2c2nc(N)n(C)c12`: the outcome was active.
Consider `CN(N=O)C(=O)c1ccccc1`, for which the outcome was active.
The value for `CC(C)CCCCCCOC(=O)c1ccccc1C(=O)OCCCCCCC(C)C` was “inactive; active”.
The value for `O=Cc1ccccc1` was “inactive; active”; that for `c1ccc2cc(Nc3ccc(Nc4ccc5ccccc5c4)cc3)ccc2c1` was “active”.
The value for `O=NN1CCCCCCC1` was “active; inactive”; that for `Nc1ccccc1C(=O)OC/C=C/c1ccccc1` was “inactive”.
On to `NC(=S)NNC(N)=S`, for which the outcome is “inactive; inconclusive”.
In the case of `Cc1ccc2c(c1[N+](=O)[O-])C(=O)c1ccccc1C2=O`, the outcome was “active; inactive”.
`Clc1ccc(C(c2ccc(Cl)cc2)C(Cl)Cl)cc1`: the result was inactive.
The value for `O=NN1CCC(O)C1` (configuration not stated) was “active”; that for `C=Cc1cccc(C)c1` was “inactive; active”.
The value for `COC(=O)C1=CCCN(N=O)C1` was “active”.
The value for `Cc1cccc(N)c1` was “inactive”; that for `Nc1ccc(Sc2ccc(N)cc2)cc1` was “active; inactive”.
`Cc1cccc2cccnc12`: the outcome was active.
The value for `C=CCN(CC=C)N=O` was “active”; that for `C=C(C)[C@H]1CC=C(C)C(=O)C1` was “inactive; active”; that for `Clc1ccc(Cl)cc1` was “inactive”.
Under `O=C(O)C(Cl)(Cl)Cl` stands “inactive”; under `CNN`, “active; inactive”; under `CCCCOC(=O)COc1ccc(Cl)cc1Cl`, “inactive; active”.
Take `Cc1cc(O)c2c(c1O)C(=O)C13C(=C2O)C(=O)C2C(O)C1C1C(O)C3C(=O)C3=C(O)c4c(O)cc(C)c(O)c4C(=O)C321` (configuration not stated): the outcome is “inactive; active”.
On to `CC/C(=C(/CC)c1ccc(O)cc1)c1ccc(O)cc1`, for which the outcome was inactive.
Under `ClC(Cl)=C(Cl)C(Cl)=C(Cl)Cl` stands “inactive; active”; under `O=c1ccc(=O)[nH][nH]1`, “inactive; active”; under `NNC(N)=O`, “inactive”.
The value for `COc1ccc([N+](=O)[O-])cc1N=Nc1c(O)c(C(=O)Nc2cccc([N+](=O)[O-])c2)cc2ccccc12` was “active; inactive”; that for `NC(=O)Cc1cccc2ccccc12` was “active”.
Under `Cc1cccn2c1nc1ccc(N)nc12` stands “active”; under `Oc1cccc2cccnc12`, “active; inactive”; under `C=C(C)C`, “inactive”.
Turning to `[N-]=[N+]=[N-]`, the outcome was “active; inactive”.
The value for `O=C1CCc2ccccc2O1` was “inactive; active”; that for `CCn1c2ccccc2c2cc(N)ccc21` was “active”.
Under `NCCS(=O)(=O)O` stands “inactive; active”.
The value for `O=CNNc1nc(-c2ccc([N+](=O)[O-])o2)cs1` was “active; inactive”.
For `ClCCl`, the outcome was “active; inactive”.
